# Patent US20020164367A1, “Botanical drug for increasing immunity and decreasing side effects of chemotherapy” (priority 2001, published 2002)
# Legend:
# [1] = test system: chick myocardial cell; assay: Survival rate of chick myocardial cells after Adriamycin induced damage (ABC immunoperoxidase staining); format: cell-based; conditions: Adriamycin 10μ for 24 hours after 4 days in culture; BDI 150 μg/ml
# Method: Hears were removed from 11 days embryos and were dissociated at 37 C. for 45 minutes with 0.25% trypsin (sigma, type III), 0.025% collagenase (sigma, type I), and 0.005% pancreatin (NBCO) prepared in calcium and magnesium free saline G containing 4% chicken serum. Then the tissue was dispersed into a single cell suspension in culture medium containing 5 g/ml DNAse I (sigma). Viable cell counts were determined by hemocyometer counting. Cells were dispersed into 60 mm culture disher (surface area 2000 mm^2) at densities of 200 cells/mm^2.
# Cultures were maintained in Ham's F-12K cln^− modified and supplemented with 5% fetal bovine serum. Tissue culture plates were incubated under at constant 5% CO2 and 95% air at 37° C. Cells counted—all cells were counted in 20 randomly selected fields across the entire dish. A Zeiss microscope 25× objective having a field of view of 0.32 mm^2 was used for cell counting.
# Monoclonal antibodies (diluted 1:1000 in PBS/BSA) were used. Immunostaining procedure used modified method of immunoperoxidase staining as follows.
# Culture plates were added antibody of cardiac myosin before 3 hours for staining. Then culture plates continuous incubated 3 hours at 37° C.
# Cell determined by recording the color and the number of microscopic fields (250×). Normal cells were light green and dead cells were brown or very dark green. […]
# [2] = test system: lymphocytes; conditions: 3H-TdR 1 μCi/ml, PHA stimulated
# Method: 0.2 ml of formic acid was then added for digestion till the precipitate was dissolved.
# [3] = test system: Interleukin-2 (rIL-2); assay: Effect of BDI on Interleukin-2 (rIL-2); format: in vivo; conditions: n=10
# Source text: The methods of determination rIL-2 were regular.
# [4] = test system: bone marrow stem cells (CFU-S); conditions: mice, n=10
# [5] = test system: peritoneal macrophage; conditions: macrophages with phagocytized chick red blood cells per 100 macrophages; BDI 5.5 mg/kg ip daily for 5 days; cyclophosphamide 4.5 mg/kg ip
# Method: Male mice weight 18-20 g were used in the experiments and were divided into treated (BDI) and control groups. The dosage of BDI was 5.5 mg/kg injected intraperitoneally. The control mice were injected with same volume of normal saline. These injections were repeated daily for 5 days, both treated and control group were injected intraperitoneally with cyclosphosphamide.
# Added 0.02 ml of 5% washed chick red blood cell suspension to 0.5 ml of the peritoneal exudates. Shook gently to mix and incubate at 37° C. for 5 minutes. Dipped two cover slips, closed to each other, in the above mixture and incubated for 30 minutes for the migration of the macrophages along the cover slips, fixed and stained with Sharma stain. Examined microscopically for:
# Phagocytic rate—number of macrophages with phagocytized chick red blood cells per 100 macrophages counted.
# [6] = test system: white blood cells; conditions: rats, 10 days of treatment
# [7] = test system: DNA viruses; conditions: by weight; cited from earlier work
# [8] = test system: host cell; conditions: by weight; cited from earlier work
smiles,measurement,setting,value
COc1cccc2c1C(=O)c1c(O)c3c(c(O)c1C2=O)C[C@@](O)(C(=O)CO)C[C@@H]3O[C@H]1C[C@H](N)[C@H](O)[C@H](C)O1 [Adriamycin],Survival rate (living/taotalx 100%),[1],36.0 ± 0.25 (*20) %
O=P1(N(CCCl)CCCl)NCCCO1 (centres unmarked) [Cyclophosphamide],CPM ± SD (lymphoblastoid transformation),[2],600 ± 65 CPM
same,IL-2 (U/ml) ± SD,[3],47.5 ± 5.5 U/ml
same,Mean (CFU-S ± SD),[4],7.6 ± 0.8
same,Phagocytic (rate ± SD),[5],8.5 ± 0.90
same,White blood cells x 10^3/cm^3 ± SD,[6],6.0 ± 0.70 10^3/cm^3
Nc1ccn([C@@H]2O[C@H](CO)[C@@H](O)[C@@H]2O)c(=O)n1 [Cytarabine],Effectiveness relative to Idoxuridine,[7],about 10 times
same,Toxicity for host cell relative to Idoxuridine,[8],10 times
